According to patent US20240391960A1, “EXTRACELLULAR CYCLOPHILIN INHIBITOR AND USE THEREOF” (PEKING UNIVERSITY SHENZHEN GRADUATE SCHOOL, priority 2021, published 2024):

Columns and labels:
intracellular CypA = molecular target: T1, intracellular CypA (Homo sapiens, UniProt P62937); experiment: Fluorescence competition flow cytometry with CsA-FITC probe in Jurkat cells; assay type: cell-based; details: CsA-FITC labelled Jurkat cells
T1 construct: endogenous in cells; host or cells: Jurkat

CypA [1] = molecular target: T2, CypA (Homo sapiens, UniProt P62937); experiment: Competitive fluorescence polarization binding assay
T2 sequence (P62937 whole entry, species assumed): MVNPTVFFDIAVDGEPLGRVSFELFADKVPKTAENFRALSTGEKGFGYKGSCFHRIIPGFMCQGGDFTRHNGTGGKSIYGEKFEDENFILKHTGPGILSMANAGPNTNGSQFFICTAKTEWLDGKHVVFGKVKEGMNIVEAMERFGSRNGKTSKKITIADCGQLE
Text: Fluorescence polarization (FP) is a widely used technique for measuring ligand-receptor binding in solution systems. Free fluorescent probes in the free state rotate rapidly in the system and the emitted fluorescence is mostly depolarized light. Once the probe binds to a larger molecule, the rotation of the molecule is restricted, and the emission of polarized light increases.

albumin (BSA) = albumin (BSA) (Bos taurus, UniProt P02769); experiment: Albumin cysteine reaction site, bottom-up peptide LC-ESI-MS; details: pancreatin digest, peptide GLVLIAFSQYLQQCPFDEHVK
Sequence of albumin (BSA) (P02769 25-607): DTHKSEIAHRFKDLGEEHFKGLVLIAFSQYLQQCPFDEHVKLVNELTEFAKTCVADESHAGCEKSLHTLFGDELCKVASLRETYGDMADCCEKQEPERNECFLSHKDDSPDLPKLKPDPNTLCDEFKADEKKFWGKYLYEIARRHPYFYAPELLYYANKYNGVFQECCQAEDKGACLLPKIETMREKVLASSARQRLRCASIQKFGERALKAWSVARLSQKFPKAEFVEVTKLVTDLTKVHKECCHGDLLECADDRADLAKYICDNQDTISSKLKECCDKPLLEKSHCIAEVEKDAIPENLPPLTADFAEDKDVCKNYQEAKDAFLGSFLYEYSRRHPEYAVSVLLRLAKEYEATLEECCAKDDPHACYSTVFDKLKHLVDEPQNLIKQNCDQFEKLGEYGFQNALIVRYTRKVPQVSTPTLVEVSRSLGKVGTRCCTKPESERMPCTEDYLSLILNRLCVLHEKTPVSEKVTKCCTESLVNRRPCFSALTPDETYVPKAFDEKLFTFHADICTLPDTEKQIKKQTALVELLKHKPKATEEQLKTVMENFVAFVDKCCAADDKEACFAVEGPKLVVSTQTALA
Description: The complex of Example 4 was denatured with urea, and the diluted protein sample was added in the proportion of pancreatin:protein=1:50. After enzymatic hydrolysis at 37° C. for 18 h, the peptide sample was desalted using Pierce® Spin Columns (Thermo Fisher) desalting column. The eluate was eluted with 70% acetonitrile, lyophilized, dissolved with 0.1% formic acid in water, and the peptide was analyzed by LC-ESI-MS, and the modified sites were analyzed using BioPharma Finder software (Thermo Fisher).

Jurkat cells = experiment: High resolution mass spectrometry determination of molecular penetration in Jurkat cells; assay type: in vitro ADME; details: 5 μM compound, 37° C., 2 hours
Text: For direct detection of molecular penetration, intracellular compound concentrations were quantified by an external standard method using a QE-Focus mass spectrometer.
The m/z signal of the corresponding molecule is selected to perform peak extraction on the chromatogram to obtain an ion chromatogram (EIC) corresponding to the extraction of the molecule, and then the concentration of the extract is quantified using the peak area under the curve of the EIC of the cell extract.

CypA [2] = molecular target: T2, CypA; experiment: PPIase activity, chymotrypsin hydrolysis of N-Succinyl-Ala-Ala-Pro-Phe p-nitroanilide; assay type: biochemical; details: 50 nM CypA, 250 μg/mL chymotrypsin, 80 μM substrate peptide; read-out: IC50, CypA enzymatic activity
Description: The effect of inhibitors on CypA enzyme activity was determined using the chymotrypsin hydrolysis of N-Succinyl-Ala-Ala-Pro-Phe p-nitroanilide substrate peptide. […] When catalyzed by proline cis-trans isomerase, its configuration changes from cis to trans, which can be specifically cleaved by chymotrypsin and release p-nitroanilide with maximum absorption around 390 nm. Thus, the stronger the CypA enzyme activity is, the faster the substrate is degraded, and the faster the absorbance at 390 nm increases. Kinetic monitoring was initiated by the addition of 250 μg/mL chymotrypsin and finally, 80 μM of an ultra-dry substrate peptide solution (470 mM LiCL in trifluoroethanol) using a microplate reader with an autosampler after binding to different concentrations of inhibitors using 50 nM CypA.

NFAT = NFAT dephosphorylation in PMA/ionomycin activated Jurkat cells, Western blot; assay type: cell-based; details: 1.5 h preincubation, 25 nM PMA and 1 μg/mL ionomycin 2 h
Text: Based on this, the present inventors investigated the effect of molecules on NFAT signal transduction during JurkatT cell activation by ionomycin and PMA. […] After the collection of cells, the dephosphorylation level of NFAT protein was detected by extraction, electrophoresis, transfer printing, and NFAT antibody. Dephosphorylation of NFAT results in two bands, phosphorylated and nonphosphorylated.

IL-2 = IL-2 secretion of activated Jurkat cells, ELISA; assay type: cell-based; details: 4MCsA up to 5 μM, 24 h PMA and ionomycin stimulation
Description: Meanwhile, the present invention further examined the secretion of IL-2 protein downstream of T-cell activation in which NFAT was involved, and the IL-2 protein content in the culture medium was measured using the ELISA method after 24 h of PMA and ionomycin stimulation.

IL-8 = experiment: CypA-stimulated IL-8 transcription in THP1 cells, RT-PCR; assay type: cell-based; details: CypA 12 hours, medium with 0.1% BSA
THP-1 cells = experiment: Transwell CypA-induced THP-1 cell migration; assay type: cell-based; details: 200 ng/ml CypA, 1 hour
[3] = system: HEK293 human kidney cells; experiment: MTT cytotoxicity; assay type: cell-based; details: HEK293, medium with 4% BSA, 30 hours, up to 50 μM
CypA [4] = experiment: Serum CypA content in T2DM model mice, ELISA; assay type: in vivo; details: DB diabetic mice, tail vein weekly for 3 weeks
Text: This example examined the effect of drugs on serum CypA contents in mice using db/db genetically engineered mice deficient in leptin receptors (DB mice) as a T2DM model (C57 mice as a healthy control group).

[5] = Fasting blood glucose and glycated hemoglobin in T2DM mouse models; assay type: in vivo, mice
Description: To effectively evaluate the effect of the drug on T2DM, this example selected DB mice and high fat diet-induced obese mouse models (HFD mice) as two different predisposing mouse models of type 2 diabetes as subjects.

[6] = Glucose tolerance test (GTT); assay type: in vivo, mice
insulin = experiment: Basal and glucose-stimulated insulin secretion, ELISA; assay type: in vivo, mice
[7] = Insulin tolerance test (ITT); assay type: in vivo, mice
Description: Insulin signaling response was further measured by performing an insulin sensitivity test (insulin tolerance test, ITT) on each of the two mice in Example 15. After the mice were fasted for 6 hours, insulin (2 U/kg for DB mice and 1 U/kg for HFD mice) was injected intraperitoneally, and then the blood glucose contents were measured at different time points.

TNF-a, IL-1β = experiment: Serum inflammatory factors in DB mice, ELISA; assay type: in vivo; details: 42 days of administration
[8] = system: CT26-LUC mouse colon cancer cells; experiment: CT26-LUC mouse colon cancer tumor model; assay type: in vivo; details: Balb/C mice, subcutaneous CT26-LUC, 5 mg/kg, three weeks
Description: This example establishes a mouse tumor model to reflect the effect of the drug by measuring the size of the tumor.
CT26-LUC mouse colon cancer cells were inoculated subcutaneously on the dorsal side of Balb/C mice in an amount of […]. Six days later, the tumor size was about 100 mm^3. The simultaneous administration was measured with vernier caliper and the administration dose of 4MCsA was 5 mg/kg. The tumors were measured once every two days and the tumor size was counted. The experiment was terminated after three weeks.

CD8T cells = experiment: CD8 T cell infiltration in the tumor microenvironment, frozen section immunofluorescence; assay type: in vivo, mice; details: tumor frozen sections
Description: The thickness of the frozen section is required to be 4-8 μm, place it at room temperature for 30 min after taking it out from −80° C., fix it in acetone at 4° C. for 10 min, wash with PBS, 5 min×3; block with 5-10% normal goat serum (diluted in PBS) and incubate at room temperature for 10 minutes. […] PBS flush, 5 min×3 times; add the appropriately diluted biotin-labeled secondary antibody (diluted in 1% BSA-PBS) dropwise, and incubate at 37° C. for 90-120 minutes; or second-generation horseradish enzyme-labeled streptavidin working solution, incubate at 37° C. or room temperature for 10-30 minutes; the PBS was washed 5 minutes×3 times, mounted and photographed using an inverted fluorescence microscope. Finally, ImageJ was used for statistical analysis.

[9] = Aortic lesion extent in high-fat diet induced atherosclerotic mice, oil red O; assay type: in vivo, ApoE gene-deficient C57BL/6J mice; details: ApoE-/- mice, Western diet, 5 mg/kg/week tail vein, 9 weeks
Description: Five-week-old ApoE gene-deficient C57BL/6J mice were randomly divided into two groups and fed with the Western diet for high-fat induction. From the 7th week, the experimental group received 4MCsA at a dose of 5 mg/kg/week via tail vein injection for 9 weeks. At the end of the experiment, the experimental animals were euthanized, dissected, and perfused with 10 mL of tissue fixative (4% paraformaldehyde) and 10 mL of […] from the right atrial appendage. The aorta was isolated intact under stereoscope and extravascular adherent adipose tissue was dissected with fat forceps. The isolated aorta was stained with oil red O, photographed, and recorded, and the lesion area of the aortic arch in the experimental group and the control group was counted with ImageJ, and the difference was statistically significant.

CRP = experiment: Serum CRP in high-fat diet-induced atherosclerotic mice; assay type: in vivo; details: ApoE-/- mice, 5 mg/kg weekly, 9 weeks
Description: After successful modeling of atherosclerotic mice, the effect of the compounds on the development of cardiovascular disease was evaluated by assessing the risk of developing cardiovascular disease in the body by measuring CRP levels in the serum of experimental mice given weekly tail vein injections of 5 mg/kg 4MCsA for 9 weeks as described in Example 23.

[10] = Serum blood lipid markers in high-fat diet-induced atherosclerotic mice; assay type: in vivo; details: ApoE-/- mice, 5 mg/kg once a week, 9 weeks
Description: A mouse model of atherosclerosis induced by a high-fat diet was established as described in Example 23 and administered in groups, 4MCsA at 5 mg/kg or placebo via tail vein once a week for 9 consecutive weeks, after which the mice were euthanized and serum was collected for routine lipid profile testing.

[11] = Serum ALT, AST in high-fat diet-induced atherosclerotic mice; assay type: in vivo; details: ApoE-/- mice, 5 mg/kg once a week, 9 weeks
Text: Atherosclerosis model in mice was induced and administered as described in Example 25. At the end of the experimental period, the mice were euthanized and serum was taken for determination of ALT and AST contents.

[12] = Hepatorenal toxicity evaluation, serum ALT, AST, creatinine, urea; details: 50 days
[13] = DB and HFD mice, once weekly tail vein, compared to CsA
[14] = HFD mice, within 36 hours on day 23 of dosing
[15] = HFD mice, within 60 hours on day 17 of dosing

T1 sequence (P62937 whole entry): as the sequence (P62937 whole entry, species assumed) above

With `CCC1NC(=O)C(C(O)C(C)CC=Cc2ccc(C(=O)NCCOCCNC(=S)Nc3ccc(-c4c5ccc(=O)cc-5oc5cc(O)ccc45)c(C(=O)O)c3)cc2)N(C)C(=O)C(C(C)C)N(C)C(=O)C(CC(C)C)N(C)C(=O)C(CC(C)C)N(C)C(=O)C(C)NC(=O)C(C)NC(=O)C(CC(C)C)N(C)C(=O)C(C(C)C)NC(=O)C(CC(C)C)N(C)C(=O)CN(C)C1=O` (stereo not shown) [CsA-FITC, reference compound] the “proportion of fluorescent cells” value (intracellular CypA) was 95.30% and the Kd (CypA [1]; fluorescence polarization, probe itself, read-out: binding constant Kd with CypA) was 14.8 ± 0.7 nM.
For `CC=CCC(C)C(O)C1C(=O)NC(CC)C(=O)N(C)CC(=O)N(C)C(CCCCNC(=O)CCCCCN2C(=O)C=CC2=O)C(=O)NC(C(C)C)C(=O)N(C)C(CC(C)C)C(=O)NC(C)C(=O)NC(C)C(=O)N(C)C(CC(C)C)C(=O)N(C)C(CC(C)C)C(=O)N(C)C(C(C)C)C(=O)N1C` (stereo not shown) [Compound 4MCsA], the “modification site on BSA” value (albumin (BSA)) was “Cys34”, the “Intracellular conc. (μM)” value (Jurkat cells) was “not detected” and the “effect on the intracellular fluorescence signal” value (intracellular CypA) was “very little effect”. For the same compound, the Ki (CypA [1]; 50 nM CypA, 20 nM CsA-FITC probe) was 198 ± 17 nM, the IC50 (CypA [2]) was 22.6 ± 4.3 nM and the “NFAT dephosphorylation induced by PMA and ionomycin” value (NFAT) was “no significant effect”. The “secretion of IL-2” value (IL-2) was “hardly affected”, the “eCypA-increased transcription level of mRNA of IL-8” value (IL-8) was “significantly inhibited” and the “migration activity promoted by CypA” value (THP-1 cells) was “significantly abolished”. For the same compound, the “cytotoxicity, cell survival by MTT” value [3] was “little cytotoxicity”, the “blood CypA contents” value (CypA [4]) was “decreased” and the fasting blood glucose [5, 13] was “significantly decreased”. For the same compound, the glycated hemoglobin contents [5, 13] was “decreased”, the “fasting blood glucose vs C57 ctrl” value ([5]; normal C57 mice, 5 mg/kg/week, after 5 weeks) was “comparable to the normal group” and the “GTT AUC” value ([6]; C57 healthy mice) was “less than that in CsA group”. The “GTT area under the curve (AUC)” value ([6]; DB mice, 5 mg/kg group vs Ctrl) was “significantly reduced”, the “glucose tolerance status (GTT)” value ([6]; DB mice, 5 mg/kg, after 5 weeks, glucose 1 g/kg i.p.) was “significantly improved” and the GTT [6, 14] was “significant improvement”. For the same compound, the “GTT AUC” value [6, 14] was “significant decrease”, the GTT [6, 15] was “remained significantly improved” and the “GTT AUC” value [6, 15] was “significantly reducing”. The “basal level of insulin” value (insulin; DB mice) was “little effect”, the “glucose-stimulated insulin secretion vs DB ctrl” value (insulin; DB mice) was “no significant difference” and the “glucose-stimulated insulin secretion vs C57 ctrl” value (insulin; healthy C57 mice) was “increased”. For the same compound, the “dose dependence of the effect on ITT” value ([7]; DB mice, 1 and 5 mg/kg/week) was “dose-dependent”, the “insulin sensitivity (ITT)” value ([7]; DB mice, insulin 2 U/kg i.p.) was “significantly improved” and the “ITT AUC compared with CsA” value ([7]; HFD mice) was “lower AUC”. For the same compound, the “insulin resistance caused by obesity (ITT)” value ([7]; HFD mice, insulin 1 U/kg i.p.) was “attenuated insulin resistance”, the “level of IL-1β” value (TNF-a, IL-1β) was “significantly reduce” and the “level of TNF-a” value (TNF-a, IL-1β) was “significantly reduce”. For the same compound, the tumor size [8] was “certain antitumor effect”, the “infiltration of CD8T cells in the tumor microenvironment” value (CD8T cells) was “promote the infiltration” and the “lesion area of the aortic arch vs control group” value [9] was “significantly reduced”. The “CRP content in the serum” value (CRP) was “very significantly reduce”, the HDL-C content [10] was “increased” and the TC content [10] was “no significant effect”. For the same compound, the TC/HDL-C [10] was “significantly reduce”, the TG content [10] was “no significant effect” and the “serum LDL-C content” value [10] was “significantly decreased”. For the same compound, the “activity of ALT in the serum” value [11] was “no significant change”, the “activity of AST in the serum” value [11] was “no significant change” and the ALT level ([12]; C57 healthy mice) was “remained close to those of healthy controls”. For the same compound, the AST level ([12]; C57 healthy mice) was “remained close to those of healthy controls”, the urea level ([12]; C57 healthy mice) was “remained close to those of healthy controls” and the “creatinine level between groups” value ([12]; DB mice) was “no difference”. For the same compound, the “hepatorenal toxicity (ALT, AST)” value ([12]; DB mice) was “not further enhanced” and the “urea level between groups” value ([12]; DB mice) was “no difference”.
